In patent publication US20210121482A1, “WITHANOLIDES FOR THE TREATMENT OF CACHEXIA” (University of Louisville Research Foundation, Inc., priority 2019, published 2021):

Assays:
[1] = system: poly-ubiquitinated proteins; assay: Immunoblot for poly-ubiquitinated proteins; type: in vivo, mice; settings: WFA treatment, 2 and 4 mg/kg
Method: Protein Extraction and Western Blotting: Quadriceps femoris (QF) samples were homogenized in chilled RIPA buffer (Sigma) supplemented with a Complete Mini Protease Inhibitor tablet (Roche Molecular Biochemicals, Indianapolis, Ind.). Tissue lysates were centrifuged at 10,000 RPM and the supernatants were collected. Protein concentration for each sample was determined using the Bradford reagent method (Bio-Rad), according to manufacturer's instructions. Protein lysates (50 μg) were separated on 10% SDS-PAGE gels at 100 volts for 2 h. The proteins were transferred to nitrocellulose membranes at 100 volts for 90 minutes. The membranes were blocked with 5% non-fat milk in Tris Buffered Saline supplemented with Tween-20 (0.5%; TBS-T) for 30-60 minutes. The membranes were then washed 3 times with TBS-T for 5 minutes. The membranes were then incubated with primary antibody at 4° C. overnight. The membranes were washed 3 times with TBS-T for 5 minutes each followed by incubation in TBS-T containing horseradish peroxidase conjugated secondary antibody (1:2000 dilution) for 1 h. The membranes were rinsed 3 times with TBS-T for 5 minutes each. Visualization of immunoreactive bands was enhanced using chemiluminescence reagents (Sigma). […]

gonadal fat pad = assay: Qualitative assessment of gonadal fat; type: in vivo, mice
Source text: Ovarian cancer progression is often associated with the specific loss of the gonadal fat pad. Thus, an attempt was made to quantify the amount of adipose tissue present in the gonadal region at the time of tissue collection post-euthanization. The severe reduction in the gonadal fat pad rendered accurate measurement of gonadal adipose tissue improbable. Further, in some mice, there was a complete absence of gonadal fat.
1. When the ovaries were embedded in adipose tissue and not readily identifiable without dissection through the fat pad, the mouse was scored “Abundant”. All mice in the control group were deemed to have an abundant amount of gonadal fat, whereas the vehicle treated group had no gonadal fat present, consistent with published reports linking specific changes in the gonadal fat pad to the progression of ovarian cancer.
2. When adipose tissue was present but in such a scant quantity that we could not accurately quantify the mass, the amount of gonadal fat was marked as “Small Amount”.

TA, GA and QF muscles = assay: Skeletal muscle weight and myofiber CSA (Example 1); type: in vivo, mice
Source text: Histology and Morphometric Analysis of Skeletal Muscle: The tibialis anterior (TA), gastrocnemius (GA) and quadriceps femoris (QF) of the mice were isolated, flash frozen in liquid nitrogen, mounted in OCT embedding medium, and then sectioned using a microtome cryostat. To assess tissue morphology, 10 μm thick transverse sections were cut from the mid-belly of the muscle and then subjected to hematoxylin and eosin (H&E) staining. Images of H&E-stained TA/GA/QF muscle sections were quantified using Image J and/or Fiji software to measure myofiber cross-sectional area (CSA). Myofiber CSA was calculated by analyzing ˜350-500 myofibers per muscle.

[2] = system: heart (cardiomyocytes, collagen deposition); assay: Histology and morphometric heart analysis; type: in vivo, mice
Source text: The hearts were isolated, flash frozen in liquid nitrogen, mounted in O.C.T. embedding medium, and then sectioned using a microtome cryostat. To assess tissue morphology, 8 μm thick transverse sections were cut from the mid-ventricle of the heart. These sections were then subjected to H&E staining or Masson's trichrome staining. Images of H&E-stained and Masson's trichrome-stained heart sections were quantified using Fiji software (National Institutes of Health software) to measure myofiber cross-sectional area (CSA) or the degree of collagen deposition, respectively. Cardiac myofiber CSA was calculated by analyzing 100-200 fibers per heart. Collagen deposition was quantified from the Masson's trichrome-stained tissue.

[3] = system: inflammatory cytokines and NLRP3 inflammasome markers in tumor samples; assay: qPCR of xenografted tumor samples; type: in vivo, Homo sapiens
Method: Total RNA Extraction and qPCR: Isolation of total RNA from xenografted tumor samples was performed using an RNeasy® Mini Kit (Qiagen Catalog #74104) according to the manufacturer's instructions. Isolation of total RNA from skeletal muscle was performed using an RNeasy® Fibrous Tissue Mini Kit (Qiagen Catalog #74704) according to the manufacturer's instructions. First strand cDNA was synthesized using 1 μg of purified RNA and a commercially available kit (iScript™ cDNA synthesis, Bio-Rad Catalog #170-8891), Quantification of mRNA expression was performed similar to as previously described (Hindi and Kumar, 2016) using the SYBR Green dye method on a StepOnePlus™ system (Applied Biosystems) using gene-specific primers, as shown in Table 1.

[4] = Change in tumor-free body weight (Example 3); type: in vivo, mice; settings: tumor-bearing, 2 and 4 mg/kg, vs tumor-bearing vehicle
Source text: Experimental tumors were induced as described in Example 2.
No significant difference in tumor weight between the two doses of WFA was observed (p=0.65).

[5] = system: A2780 ovarian cancer xenograft; settings: mouse, in vivo
Method: Tumor-bearing groups received an IP injection of 1.0×10^6 low passage A2780 cells suspended in 100 μl sterile PBS.
Graphical Display and Statistical Analyses: The majority of the results were expressed as box-and-whisker plots with the box comprised of the first, second, and third quartiles, and the lower and upper whiskers corresponding to the minimum and maximum values, respectively, to display the entire range of data. A Kaplan-Meier curve was used for the survival analysis. Statistical analysis of the data was performed using one-way analysis of variance (ANOVA) followed by Tukey's Honestly Significant Difference Test (HSDT) post hoc analysis or the Mantel-Cox log-rank test to determine statistically significant differences between groups with GraphPad Prism 8.0.1 software for Mac (La Jolla, Calif., USA). A value of P<0.05 was considered statistically significant, unless otherwise specified.

[6] = 2 and 6 mg/kg, vs control group
[7] = 2 and 6 mg/kg, vs vehicle treated group

## CC1=C(CO)C(=O)O[C@@H]([C@@H](C)[C@H]2CC[C@H]3[C@@H]4C[C@H]5O[C@]56[C@@H](O)C=CC(=O)[C@]6(C)[C@H]4CC[C@]23C)C1 [WFA, (4β,5β,6β,22R)-4,27-Dihydroxy-5,6:22,26-diepoxyergosta-2,24-diene-1,26-dione]
[1]
  pan-ubiquitination of proteins (immunoblot): reduced in response to WFA treatment
Gonadal fat pad; WFA 2 mg/kg
  Gonadal Fat: Absent (mice scored/group): 0
  Gonadal Fat: Abundant (mice scored/group): 0
  Gonadal Fat: Present (mice scored/group): 4/5
  Gonadal Fat: Small Amount (mice scored/group): 1/5
Gonadal fat pad; WFA 6 mg/kg
  Gonadal Fat: Absent (mice scored/group): 0
  Gonadal Fat: Abundant (mice scored/group): 0
  Gonadal Fat: Present (mice scored/group): 1/4
  Gonadal Fat: Small Amount (mice scored/group): 3/4
TA, GA and QF muscles; 2 mg/kg, vs control group
  normalized wet weight of gastrocnemius (GA): significant reduction in normalized wet weight
TA, GA and QF muscles; 2 mg/kg, vs control group (p=0.09)
  myofibrillar CSA in GA muscle: restoration of myofibrillar CSA
TA, GA and QF muscles; 6 mg/kg, vs control group
  wet weight of quadriceps femoris (QF): significant reduction in wet weight
TA, GA and QF muscles; 6 mg/kg, vs control group (p=0.007)
  restoration of myofibrillar CSA in GA muscle: not those treated with 6 mg/kg of WFA
TA, GA and QF muscles; [6]
  average myofiber CSA (TA and QF): significant reduction in average myofiber CSA
  normalized wet weight of tibialis anterior (TA): significant reduction in normalized wet weight
TA, GA and QF muscles; [7]
  average myofiber CSA (TA, GA, QF): significantly greater than the vehicle treated group
  normalized muscle weights (TA, GA, QF): no difference between the vehicle and WFA treated groups
[2]; tumor-bearing WFA-treated groups vs tumor-bearing vehicle
  cross-sectional area (CSA) of cardiomyocytes: partial recovery of the CSA of cardiomyocytes
[2]; tumor-bearing, both doses, vs tumor-bearing vehicle
  reduction in heart weight (normalized by tibial length): significantly blunted
[2]; tumor-bearing, either dose, vs tumor-bearing vehicle
  percentage of connective tissue in heart: significantly decreased
[2]; tumor-free WFA-treated groups vs tumor-free vehicle
  collagen deposition / connective tissue in heart: comparable amount of connective tissue
[2]; tumor-free animals
  heart weight: did not have any effect on heart weight in tumor-free animals
[3]; 2 mg/kg, vs vehicle treated group
  relative transcript levels of TNFα, IFNγ, IL-6, IL-8 in tumor: significantly reduced
[3]; 2 mg/kg, vs vehicle treated group (p=0.06)
  relative transcript levels of HO-1 in tumor: trended towards an increase
[3]; 2 mg/kg, vs vehicle treated group (p=0.07)
  relative gene expression of IL-18 in tumor: trend towards reduction
[3]; 6 mg/kg, vs vehicle treated group
  relative mRNA expression of TNFα in tumor: significantly reduced
[3]; 6 mg/kg, vs vehicle treated group (p=0.03)
  relative transcript levels of HO-1 in tumor: significantly increased
[3]; 6 mg/kg, vs vehicle treated group (p=0.07, p=0.09)
  relative expression of IL-6 and IL-8 genes in tumor: trend towards reduction
[3]; 6 mg/kg, vs vehicle treated group (p=0.21)
  relative gene expression of IL-18 in tumor: did not approach the level of statistical significance
[3]; [7]
  reduction in NLRP3 mRNA levels in tumor: not found to be significant
  relative transcript levels of CASP1 in tumor: dose-dependent decrease
  relative transcript levels of IL-1β in tumor: significantly reduced in both WFA treated groups
[4]
  absolute change in tumor-free body weight: significant preservation of body weight loss
[5]
  toxicity of high dose: turned out to be toxic
